#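 Interpolation was linear, between the two tested concentrations surrounding the appropriate level; five concentrations were tested over 48 hours in 96-well plates. GI50 = concentration required for 50% inhibition of growth.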 The source made the active and inactive calls. No stated cut-off is given here; in the data, active = GI50 up to about 1.1 µM and inactive = higher.
# Legend:
# Assay in all cases: NCI tumour cell line growth inhibition, 48 h
# HL-60 = system: HL-60
# HOP-92 = system: HOP-92
# PC-3 = system: PC-3
# UO-31 = system: UO-31
# SK-MEL-2 = system: SK-MEL-2
# A498 = system: A498
# SF-268 = system: SF-268
# SK-MEL-5 = system: SK-MEL-5
# NCI-H23 = system: NCI-H23
# A549 = system: A549
# COLO 205 = system: COLO 205
# LOX IMVI = system: LOX IMVI
# SNB-75 = system: SNB-75
# OVCAR-5 = system: OVCAR-5
# SF-295 = system: SF-295
# IGROV-1 = system: IGROV-1
# MCF7 = system: MCF7
# MDA-MB-435 = system: MDA-MB-435
# SW-620 = system: SW-620
# T47D = system: T47D
SMILES,GI50 (HL-60),GI50 (HOP-92),GI50 (PC-3),GI50 (UO-31),GI50 (SK-MEL-2),GI50 (A498),GI50 (SF-268),GI50 (SK-MEL-5),GI50 (NCI-H23),GI50 (A549),GI50 (COLO 205),GI50 (LOX IMVI),GI50 (SNB-75),GI50 (OVCAR-5),GI50 (SF-295),GI50 (IGROV-1),GI50 (MCF7),GI50 (MDA-MB-435),GI50 (SW-620),GI50 (T47D)
CSC1=NN(C(C)=O)C(C(OC(C)=O)C(OC(C)=O)C(OC(C)=O)C(COC(C)=O)OC(C)=O)S1 (centres undefined),> 100 µM (inactive),> 100 µM (inactive),> 100 µM (inactive),11 µM (inactive),> 100 µM (inactive),> 100 µM (inactive),> 100 µM (inactive),> 100 µM (inactive),> 100 µM (inactive),> 100 µM (inactive),> 100 µM (inactive),> 100 µM (inactive),> 100 µM (inactive),> 100 µM (inactive),> 100 µM (inactive),> 100 µM (inactive),> 100 µM (inactive),> 100 µM (inactive),> 100 µM (inactive),> 100 µM (inactive)
CC(C)(C)c1cc(C(=O)/C=C/c2c(Cl)cccc2Cl)cc(C(C)(C)C)c1O,3.7 µM (inactive),25.8 µM (inactive),11.4 µM (inactive),14.9 µM (inactive),11.9 µM (inactive),27.2 µM (inactive),18.8 µM (inactive),11.4 µM (inactive),16.1 µM (inactive),18.8 µM (inactive),15.9 µM (inactive),13.6 µM (inactive),4.93 µM (inactive),19.2 µM (inactive),11.5 µM (inactive),23.4 µM (inactive),8.34 µM (inactive),15.5 µM (inactive),13.3 µM (inactive),4.33 µM (inactive)
NC(=O)c1nc[nH]c1/N=N/SCC(N)C(=O)O (centres undefined),1.26 µM (inactive),15.7 µM (inactive),15.7 µM (inactive),4.22 µM (inactive),3.33 µM (inactive),> 100 µM (inactive),10.7 µM (inactive),57 µM (inactive),> 78.9 µM (inactive),> 100 µM (inactive),21.2 µM (inactive),2.61 µM (inactive),24.3 µM (inactive),> 94 µM (inactive),6.32 µM (inactive),12.8 µM (inactive),97.7 µM (inactive),33.1 µM (inactive),16.4 µM (inactive),> 60.5 µM (inactive)
C=CC(=O)NCCC(=O)OCn1cc(F)c(=O)[nH]c1=O,0.425 µM (active),8.49 µM (inactive),9.12 µM (inactive),2.33 µM (inactive),7.93 µM (inactive),0.456 µM (active),18.7 µM (inactive),3.67 µM (inactive),7.01 µM (inactive),2.36 µM (inactive),1.37 µM (inactive),4.34 µM (inactive),19.4 µM (inactive),20.6 µM (inactive),15.5 µM (inactive),4.33 µM (inactive),1.2 µM (inactive),5.32 µM (inactive),17.2 µM (inactive),83.2 µM (inactive)
C[C@@H]1Nc2cc(NC(=O)OCCF)nc(N)c2N=C1c1ccccc1,< 0.0001 µM (active),> 100 µM (inactive),< 0.0001 µM (active),21.5 µM (inactive),< 0.01 µM (active),19.8 µM (inactive),< 0.0001 µM (active),< 0.0001 µM (active),< 0.0001 µM (active),< 0.0001 µM (active),< 0.0001 µM (active),< 0.0001 µM (active),32.7 µM (inactive),< 0.0001 µM (active),< 0.0001 µM (active),< 0.0001 µM (active),0.0208 µM (active),< 0.0001 µM (active),< 0.0001 µM (active),61.9 µM (inactive)
Cc1cc(NS(=O)(=O)c2ccc(/N=[N+](\[O-])c3ccc(S(=O)(=O)Nc4cc(C)on4)cc3)cc2)no1,> 100 µM (inactive),> 100 µM (inactive),> 100 µM (inactive),> 100 µM (inactive),> 100 µM (inactive),> 100 µM (inactive),> 100 µM (inactive),> 100 µM (inactive),> 100 µM (inactive),> 100 µM (inactive),> 100 µM (inactive),> 100 µM (inactive),> 100 µM (inactive),> 100 µM (inactive),> 100 µM (inactive),> 100 µM (inactive),> 100 µM (inactive),> 100 µM (inactive),–,> 100 µM (inactive)
S=C(N/N=C/c1ccccn1)N1CC2CCC(CC2)C1,< 0.01 µM (active),0.0568 µM (active),< 0.01 µM (active),< 0.0111 µM (active),< 0.0471 µM (active),0.119 µM (active),0.0301 µM (active),< 0.01 µM (active),< 0.01 µM (active),< 0.01 µM (active),< 0.01 µM (active),< 0.01 µM (active),0.2 µM (active),< 0.024 µM (active),< 0.0128 µM (active),< 0.01 µM (active),< 0.01 µM (active),0.0404 µM (active),< 0.01 µM (active),< 0.01 µM (active)
CO/C(=N\N=C\c1cccc(C(F)(F)F)c1)c1ccncc1,2.83 µM (inactive),23.3 µM (inactive),40.7 µM (inactive),4.47 µM (inactive),2.89 µM (inactive),9.91 µM (inactive),8.05 µM (inactive),11.4 µM (inactive),12 µM (inactive),8.09 µM (inactive),13.5 µM (inactive),7.76 µM (inactive),15.5 µM (inactive),32.5 µM (inactive),1.76 µM (inactive),10 µM (inactive),2.52 µM (inactive),2.32 µM (inactive),4.6 µM (inactive),37.2 µM (inactive)
COC(=O)C1c2c(c3ccccc3n2C(=O)OC)CCN2CCC1C(S(=O)(=O)c1ccccc1)C2=O (centres undefined),90.6 µM (inactive),> 100 µM (inactive),> 100 µM (inactive),> 100 µM (inactive),> 100 µM (inactive),> 100 µM (inactive),> 100 µM (inactive),> 100 µM (inactive),> 100 µM (inactive),> 100 µM (inactive),> 100 µM (inactive),> 100 µM (inactive),> 100 µM (inactive),> 100 µM (inactive),> 100 µM (inactive),> 100 µM (inactive),> 100 µM (inactive),> 100 µM (inactive),> 100 µM (inactive),> 100 µM (inactive)
O=C(c1c(F)c(F)c(F)c(F)c1F)n1c(O)nc2ccccc21,2.42 µM (inactive),2.88 µM (inactive),7.93 µM (inactive),12.3 µM (inactive),4.2 µM (inactive),19.1 µM (inactive),14.7 µM (inactive),15.2 µM (inactive),4.88 µM (inactive),16.7 µM (inactive),12.9 µM (inactive),3.83 µM (inactive),16.5 µM (inactive),15.7 µM (inactive),16.4 µM (inactive),11.4 µM (inactive),4.04 µM (inactive),10.1 µM (inactive),4.91 µM (inactive),3.94 µM (inactive)
CC[C@@]1(O)C(=O)OCc2c1cc1n(c2=O)Cc2c-1nc1ccccc1c2/C=N\NC(=O)C(N)Cc1c[nH]c2ccccc12 (some centres undefined),0.0638 µM (active),3.8 µM (inactive),1.29 µM (inactive),0.173 µM (active),5.93 µM (inactive),0.499 µM (active),0.0354 µM (active),0.521 µM (active),0.124 µM (active),0.301 µM (active),18.2 µM (inactive),0.0675 µM (active),0.0745 µM (active),13.1 µM (inactive),0.0887 µM (active),2.86 µM (inactive),0.0668 µM (active),1.05 µM (active),0.61 µM (active),0.0743 µM (active)
CCOP(=O)(O)C(Nc1ccc(/N=N/c2ccccc2)cc1)c1ccc(C(Nc2ccc(/N=N/c3ccccc3)cc2)P(=O)(O)OCC)cc1 (centres undefined),17.1 µM (inactive),22.1 µM (inactive),17.1 µM (inactive),67.1 µM (inactive),18.2 µM (inactive),32 µM (inactive),20.4 µM (inactive),16.6 µM (inactive),29.2 µM (inactive),29.7 µM (inactive),15.3 µM (inactive),15.6 µM (inactive),14.7 µM (inactive),22.4 µM (inactive),18.9 µM (inactive),19.7 µM (inactive),48.3 µM (inactive),17.4 µM (inactive),16.7 µM (inactive),15.3 µM (inactive)
C[C@@H]1C[C@H]2CC[C@H](O2)[C@H](C)C(=O)O[C@@H](C)C[C@@H]2CC[C@@H](O2)[C@@H](C)C(=O)O[C@H](C)C[C@H]2CC[C@H](O2)[C@H](C)C(=O)O[C@@H](C)C[C@@H]2CC[C@@H](O2)[C@@H](C)C(=O)O1,0.157 µM (active),0.183 µM (active),0.218 µM (active),0.374 µM (active),0.245 µM (active),0.859 µM (active),0.316 µM (active),0.154 µM (active),0.224 µM (active),0.344 µM (active),0.155 µM (active),0.305 µM (active),0.338 µM (active),0.568 µM (active),0.242 µM (active),0.34 µM (active),0.326 µM (active),0.338 µM (active),0.349 µM (active),0.189 µM (active)
CSc1ccc2c(cc1=O)[C@@H](NC(C)=O)CCc1cc(O)c(O)c(O)c1-2,37.8 µM (inactive),23.7 µM (inactive),84.3 µM (inactive),21.6 µM (inactive),32.9 µM (inactive),23.3 µM (inactive),16.3 µM (inactive),32.4 µM (inactive),20.5 µM (inactive),20.1 µM (inactive),30.4 µM (inactive),23 µM (inactive),14.3 µM (inactive),17.1 µM (inactive),13.3 µM (inactive),15.2 µM (inactive),4.81 µM (inactive),10.4 µM (inactive),28.1 µM (inactive),60.4 µM (inactive)
